Assay results: paper PMC7144155 (ACS Omega, 2020)
Values after ≈ are worked out from the molar mass of the structure shown. Values joined by “and” are separate entries in the source; they are usually repeats but may differ in a detail not shown here. Equal entries are not always repeated.

What was measured:
traumatic brain injury = conditions: after traumatic brain injury; cited from earlier work
[1] = system: formalin-injected paw model of pain; conditions: coadministration 450 μg/paw; P < 0.001; cited from earlier work
U87MG cells = conditions: 20 and 40 μM; cited from earlier work
[2] = target: T1, human vasopressin V1A receptor (hV1AR) (Homo sapiens, UniProt P37288); assay: GPCR functional assay, agonist effect; assay type: cell-based; conditions: for % stimulation: V1A (h), % of control response to 1 μM AVP at 50 μM of anthraquinones; for agonist response at hV1AR (in words): up to 50 μM
[3] = system: human glioblastoma U87MG-implanted nude CG1 mice; conditions: i.p. 50 mg/(kg day) for 15 days; decreasing Ki67 positive cells; cited from earlier work
[4] = target: T2, human dopamine D4 receptor (hD4R) (Homo sapiens, UniProt P21917); assay: GPCR functional assay, antagonist effect; assay type: cell-based; conditions: for inhibition at 50 µM: CHO
T2 sequence (P21917 1-419): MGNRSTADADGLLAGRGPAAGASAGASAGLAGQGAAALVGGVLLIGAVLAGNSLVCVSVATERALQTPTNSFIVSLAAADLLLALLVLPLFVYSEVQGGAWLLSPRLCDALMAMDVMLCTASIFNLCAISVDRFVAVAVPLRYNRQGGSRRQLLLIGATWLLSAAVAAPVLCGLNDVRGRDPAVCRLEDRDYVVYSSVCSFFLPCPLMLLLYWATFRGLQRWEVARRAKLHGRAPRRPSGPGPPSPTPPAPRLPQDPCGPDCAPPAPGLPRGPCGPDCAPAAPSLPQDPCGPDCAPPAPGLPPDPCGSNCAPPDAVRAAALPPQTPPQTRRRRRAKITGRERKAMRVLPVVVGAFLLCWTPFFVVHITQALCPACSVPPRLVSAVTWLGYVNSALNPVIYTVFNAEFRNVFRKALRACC

[5] = target: T3, human dopamine D1 receptor (hD1R) (Homo sapiens, UniProt P21728); assay: GPCR functional assay, antagonist effect; assay type: cell-based; conditions: CHO
[6] = target: T2, human dopamine D4 receptor (hD4R); assay: GPCR functional assay, agonist effect; assay type: cell-based; conditions: D4 (h); % of control agonist (dopamine) response at 50 μM of anthraquinones
[7] = target: T4, human 5-HT1A receptor (h5-HT1AR) (Homo sapiens, UniProt P08908); assay: GPCR functional assay, agonist effect; assay type: cell-based; conditions: 5-HT1A (h); % of control response to serotonin (2.5 μM) at 50 μM of anthraquinones
T4 sequence (P08908 1-422): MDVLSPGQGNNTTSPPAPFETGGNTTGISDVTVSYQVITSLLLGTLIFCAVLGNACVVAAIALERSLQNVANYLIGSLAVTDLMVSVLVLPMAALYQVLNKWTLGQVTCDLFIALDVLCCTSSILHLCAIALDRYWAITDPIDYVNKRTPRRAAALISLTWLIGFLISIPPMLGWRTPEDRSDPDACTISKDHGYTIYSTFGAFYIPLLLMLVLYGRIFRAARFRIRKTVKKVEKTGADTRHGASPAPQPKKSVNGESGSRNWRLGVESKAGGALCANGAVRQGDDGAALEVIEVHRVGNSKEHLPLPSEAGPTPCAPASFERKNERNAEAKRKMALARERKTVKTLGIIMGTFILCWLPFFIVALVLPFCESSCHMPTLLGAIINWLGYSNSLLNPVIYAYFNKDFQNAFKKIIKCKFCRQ

acetylcholinesterase = conditions: cited from earlier work
[8] = target: T5, human dopamine D3 receptor (hD3R) (Homo sapiens, UniProt P35462); assay: GPCR functional assay, antagonist effect; assay type: cell-based; conditions: for % inhibition: D3 (h), % inhibition of control response to 10 nM dopamine at 50 μM of anthraquinones
[9] = target: T1, human vasopressin V1A receptor (hV1AR); assay: cell-based
[10] = target: T4, human 5-HT1A receptor (h5-HT1AR); assay: GPCR functional assay, antagonist effect; assay type: cell-based; conditions: for % inhibition: 5-HT1A (h), % inhibition of control response to 30 nM serotonin at 50 μM of anthraquinones
[11] = target: T3, human dopamine D1 receptor (hD1R); assay: GPCR functional assay, agonist effect; assay type: cell-based; conditions: D1 (h); % of control agonist (dopamine) response at 50 μM of anthraquinones
[12] = target: T5, human dopamine D3 receptor (hD3R); assay: GPCR functional assay, agonist effect; assay type: cell-based; conditions: for % stimulation: D3 (h), % of control response to 300 nM dopamine at 50 μM of anthraquinones
[13] = 20 and 40 mg/kg, rapid phase II metabolism to glucuronide; cited from earlier work
[14] = system: cerebral ischemia/reperfusion (I/R) model rats; conditions: intraperitoneal injection, 25 g/(kg day); cited from earlier work
[15] = system: cycloheximide-induced amnesia in rats; conditions: cited from earlier work
[16] = system: human epidermoid carcinoma A431 cell; conditions: 100 μM, 4 nM (−)-epinephrine, 2 μM nicotinic acid, 8 μM histamine; cited from earlier work

T5 sequence (P35462 whole entry): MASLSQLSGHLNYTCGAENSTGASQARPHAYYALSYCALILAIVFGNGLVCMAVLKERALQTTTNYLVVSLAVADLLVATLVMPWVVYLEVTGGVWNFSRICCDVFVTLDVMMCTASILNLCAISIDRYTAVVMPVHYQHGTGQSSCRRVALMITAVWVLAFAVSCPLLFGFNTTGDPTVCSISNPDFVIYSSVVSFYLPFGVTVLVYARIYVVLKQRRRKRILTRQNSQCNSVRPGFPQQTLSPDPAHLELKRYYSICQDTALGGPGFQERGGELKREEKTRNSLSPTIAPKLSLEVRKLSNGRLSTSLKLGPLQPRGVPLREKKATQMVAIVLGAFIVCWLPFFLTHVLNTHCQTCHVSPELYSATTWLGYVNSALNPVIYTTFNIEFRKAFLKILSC
T3 sequence (P21728 whole entry): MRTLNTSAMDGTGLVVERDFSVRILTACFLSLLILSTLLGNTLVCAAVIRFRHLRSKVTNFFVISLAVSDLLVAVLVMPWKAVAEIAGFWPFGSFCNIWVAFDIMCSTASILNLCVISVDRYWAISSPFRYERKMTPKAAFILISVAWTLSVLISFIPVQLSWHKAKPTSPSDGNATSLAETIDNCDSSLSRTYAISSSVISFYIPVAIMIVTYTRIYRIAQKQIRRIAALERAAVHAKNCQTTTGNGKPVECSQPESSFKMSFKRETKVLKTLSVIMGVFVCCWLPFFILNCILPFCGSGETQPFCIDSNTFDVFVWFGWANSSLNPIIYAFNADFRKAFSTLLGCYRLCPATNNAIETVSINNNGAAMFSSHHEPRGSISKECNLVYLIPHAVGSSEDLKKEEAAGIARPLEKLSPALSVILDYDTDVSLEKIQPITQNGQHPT
T1 sequence (P37288 whole entry): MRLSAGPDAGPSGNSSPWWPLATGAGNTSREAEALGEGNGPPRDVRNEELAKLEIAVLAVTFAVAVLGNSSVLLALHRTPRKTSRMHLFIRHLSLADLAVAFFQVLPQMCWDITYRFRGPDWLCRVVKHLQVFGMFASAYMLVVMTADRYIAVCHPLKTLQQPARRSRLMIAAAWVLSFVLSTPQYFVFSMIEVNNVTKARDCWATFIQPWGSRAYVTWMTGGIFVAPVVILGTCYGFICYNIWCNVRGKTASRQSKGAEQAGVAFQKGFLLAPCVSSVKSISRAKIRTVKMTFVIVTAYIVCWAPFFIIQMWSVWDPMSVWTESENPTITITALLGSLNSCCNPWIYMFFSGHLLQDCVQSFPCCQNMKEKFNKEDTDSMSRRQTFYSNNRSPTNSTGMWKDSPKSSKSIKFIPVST

| % stimulation [2] | agonist response at hV1AR (in words) [2] | inhibition at 50 µM [4] [%] | inhibition at 50 µM [5] [%] | % stimulation [6] | % stimulation [7] | % inhibition [8] [%] | antagonist effect on h5-HT1AR (in words) [10] | % inhibition [10] [%] | % stimulation [11] | % stimulation [12] | SMILES | effect on hV1AR (in words) [9] | also measured |
| --- | --- | --- | --- | --- | --- | --- | --- | --- | --- | --- | --- | --- | --- |
|  |  |  |  |  |  |  |  |  |  |  | COc1ccc(S(=O)(=O)N2c3ccc(Cl)cc3[C@](O)(c3ccccc3Cl)[C@@H]2C(=O)N2CCC[C@H]2C(N)=O)cc1OC [SR49059, (2S)1-{(2R,3S)-5-chloro-3-(2-chloro-phenyl)-1-(3,4-dimethoxybenzene-sulfonyl)-3-hydroxy-2,3-dihydro-1H-indole-2-carbonyl}pyrrolidine-2-carboxamide] |  | brain edema (traumatic brain injury): prevented brain edema |
|  |  |  |  |  |  |  |  |  |  |  | COc1ccccc1N1CCN(CC(C(=O)NC(C)(C)C)c2ccccc2)CC1 (stereo not drawn) [WAY 100 135] |  | phase 2 (long lasting) intense flinching behavior [1]: inhibited |
| –4.80 ± 0.69% | did not show any agonist response | -0.35 | -10.2 | 2.35 ± 2.76% | –3.56 ± 0.21% | −10.8 ± 6.59 | remained ineffective | 18.4 ± 3.89 | –3.55 ± 0.64% | 75.6% and 75.60 ± 12.87% | Cc1cc(O)c2c(c1)C(=O)c1cc(O)cc(O)c1C2=O [emodin] |  | parent form in vivo after oral administration [13]: almost undetectable; IC50 [9]: 10.2 ± 1.97 µM; inhibition at 12.5 µM ([9]; CHO, read-out: inhibition of 10 nM AVP-induced intracellular Ca2+ concentration): > 50%; % inhibition ([9]; V1A (h), % inhibition of control response to 10 nM AVP at 50 μM of anthraquinones): 69.35 ± 1.34%; neurological deficit scores [14]: improved neurological deficit scores; cycloheximide-induced amnesia [15]: improved cycloheximide-induced amnesia; effect on agonist-induced dynamic mass redistribution signals [16]: inhibited; EC50 [12]: 21.9 ± 2.66 µM |
| –3.40 ± 0.71% | did not show any agonist response | 4.5 | 10.9 | –38.15 ± 15.91% | 2.45 ± 0.49% | 1.25 ± 7.42 | remained ineffective | 0.70 ± 4.10 | –2.10 ± 0.85% | 34.85% and 34.85 ± 0.78% | COc1cc(O)cc2c1C(=O)c1c(O)cc(C)cc1C2=O [questin] | did not have any observable effect | hD3R agonist effect (in words) [12]: moderate hD3R agonist effect |

| SMILES | % stimulation [2] | agonist response at hV1AR (in words) [2] | inhibition at 50 µM [4] [%] | inhibition at 50 µM [5] [%] | % stimulation [6] | % stimulation [7] | % inhibition [8] [%] | antagonist effect on h5-HT1AR (in words) [10] | % inhibition [10] [%] | % stimulation [11] | % stimulation [12] | effect on hV1AR (in words) [9] | also measured |
| --- | --- | --- | --- | --- | --- | --- | --- | --- | --- | --- | --- | --- | --- |
| O=C1c2cccc(O)c2C(=O)c2c(O)cc(CO)cc21 [aloe-emodin] | 7.45 ± 1.20% | did not show any agonist response | 25.7 | -47.9 | -53.15 ± 7.00% | 3.45 ± 0.21% | 20.60 ± 6.79 | remained ineffective | 1.55 ± 3.61 | 0.15 ± 4.45% | –57.95 ± 32.88% | did not have any observable effect | cell cycle effect (U87MG cells): induced cell cycle arrest; effect in mouse brain tumour model [3]: showed antiproliferative effect; hD4R antagonist effect (in words) [4]: mild antagonist effect; IC50 (acetylcholinesterase activity) (acetylcholinesterase): 18.37 µg/mL (≈ 68 µM); hD3R antagonist effect (in words) [8]: mild hD3R antagonist effect |
